Test results reported in patent publication US20050124056A1, “Novel oxidase” (priority 2002, published 2005).

What was measured:
[1] = tested on: COX-2 mRNA in NOX1-b expressing cells; settings: final concentration of 1 μM, RT-PCR 3 hours thereafter; EtBr staining
Description: Using the mRNA extraction method shown in Example 1, respective cDNA samples were prepared from the vacant vector expressing cells and NOX1-b expressing cells. By synthesizing probe primers coding for the COX-2-specific sequences represented by SEQ ID NO:9 and SEQ ID NO:10, an RT-PCT reaction of 94° C. for 1 minute and 45 cycles consisting of 94° C. for 10 seconds, 55° C. for 20 seconds and 72° C. for 30 seconds, was carried out on each of the vacant vector expressing cell- and NOX1-b expressing cells-derived samples using a DNA polymerase (r Taq DNA polymerase; mfd. by Toyobo).

[2] = tested on: TNF-α mRNA in NOX1-b expressing cells; settings: pretreated for 3 hours with 1 μM; RT-PCR, EtBr staining
Description: On each of the cDNA samples prepared in Example 6 and using a DNA polymerase (r Taq DNA polymerase; mfd. by Toyobo), RT-PCR reaction of 94° C. for 1 minute, 45 cycles of consisting of 94° C. for 10 seconds and 55° C. for 20 seconds and 72° C. for 30 seconds, was carried out.

NOX1-b = NOX1-b (Homo sapiens, UniProt Q9Y5S8); settings: 1 μM added 30 minutes before the addition of cytochrome C; NOX1-b expressing NIH3T3 cells
Chain of NOX1-b (Q9Y5S8 1-515 isoform Q9Y5S8-3): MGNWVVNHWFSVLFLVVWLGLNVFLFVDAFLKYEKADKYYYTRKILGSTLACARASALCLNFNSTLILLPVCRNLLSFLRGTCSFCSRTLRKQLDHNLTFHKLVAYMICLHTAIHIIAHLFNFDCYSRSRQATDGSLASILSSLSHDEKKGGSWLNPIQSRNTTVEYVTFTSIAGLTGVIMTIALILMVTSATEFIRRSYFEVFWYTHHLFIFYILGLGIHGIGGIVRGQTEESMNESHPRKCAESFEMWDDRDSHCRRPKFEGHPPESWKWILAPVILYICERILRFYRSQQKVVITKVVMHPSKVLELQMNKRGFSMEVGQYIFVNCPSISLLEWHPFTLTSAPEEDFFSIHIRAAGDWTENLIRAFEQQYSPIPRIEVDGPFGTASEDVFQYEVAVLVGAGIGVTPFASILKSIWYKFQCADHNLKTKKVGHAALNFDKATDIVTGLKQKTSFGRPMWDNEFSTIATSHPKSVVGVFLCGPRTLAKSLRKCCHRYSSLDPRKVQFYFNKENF
Chain of NOX1-b (Q61462 whole entry partner): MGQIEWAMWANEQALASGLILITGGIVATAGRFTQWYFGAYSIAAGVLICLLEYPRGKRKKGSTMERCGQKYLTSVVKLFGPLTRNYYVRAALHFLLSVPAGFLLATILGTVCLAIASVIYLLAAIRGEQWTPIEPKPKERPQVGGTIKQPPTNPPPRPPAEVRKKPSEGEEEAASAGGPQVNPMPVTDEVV
Description: Using the NOX1-b expressing cells shown in Example 3, the ROS productivity was measured by a cytochrome C reduction method. In order to measure ROS by the cytochrome C reduction method, vacant vector expressing cells and NOX1-b expressing cells were respectively dispensed in 0.5×10^6 cells/100 μl/well portions into a 96 well multi-well plate for cell culture (to be referred to as multi-well plate). About 12 hours thereafter, 4.62 mg/ml of cytochrome C was added and mixed in 100 μl/well portions under respective conditions, and then the multi-well plate was set on a plate reader to periodically measurement of absorbance at 550 nm.

With `c1ccc2c(c1)[I+]c1ccccc1-2` [DPI, diphenylene iodonium chloride] the “induction of COX-2 expression by NOX1-b expression” value [1] was “inhibited”, the “induction of TNF-α expression in NOX1-b expressing cells” value [2] was “inhibited” and the “ROS producing activity (absorbance at 550 nm, integrated values after 1 hour)” value (NOX1-b) was “considerably inhibited”.
